Legend:
[1] = Aqueous solubility of Dabigatran etexilate in presence of solubility enhancers; type: physicochemical
From the text: However, based on data presented in Table I, TPGS (tocopherol polyethylene glycol succinate) would be expected to be a poor solubilizer by one skilled in the art. […] The present invention provides pharmaceutical compositions and method of administration of Dabigatran etexilate to overcome the clinical limitations posed by gastrointestinal delivery, specifically by increasing the solubility of Dabigatran etexilate, while maintaining it in its most bioavailable form to ascertain an effective transport through the oral mucous membranes so it effectively can exert its anticoagulant activity. We have observed that the use of pharmaceutical solubilizers such as d-alpha Tocopherol polyethylene glycol succinate (TPGS) and Polysorbate 80 improved the solubility up to 5-10 mg/mL. Without being bound to any specific mechanism, the enhanced solubility and dissolution of Dabigatran etexilate, when co-formulated with TPGS may likely be due to ability of TPGS to inhibit precipitation and maintain supersaturation of dabigatran free base in the formulation microenvironment during dissolution. Pharmaceutical co-solvents such as Polyethylene Glycol 400 (PEG 400) and Glycerol improved the solubility compared to water alone, but the solubility was still<0.1 mg/mL.

[2] = Percent of Dabigatran etexilate remaining after exposure to aqueous solutions; type: physicochemical; conditions: 15 minutes
[3] = pH 4.5-7.4; cited from earlier work

Substance: Dabigatran etexilate
- Solubility (mg/ml) 25° C. ([1]; 2% w/v Polysorbate 80 in 0.01M histidine buffer, pH 7.4, 25° C.): <0.1 mg/mL
- Solubility (mg/ml) 25° C. ([1]; 5% w/v Polysorbate 80 in 0.01M histidine buffer, pH 7.5, 25° C.): <0.1 mg/mL
- Solubility (mg/ml) 25° C. ([1]; 5% w/v TPGS in 0.01M histidine buffer, pH 7.6, 25° C.): 0.37 mg/mL
- Solubility (mg/ml) 25° C. ([1]; 10% w/v Glycerol in 0.01M histidine buffer, pH 7.6, 25° C.): <0.1 mg/mL
- Solubility (mg/ml) 25° C. ([1]; 10% w/v PEG 400 in 0.01M histidine buffer, pH 7.5, 25° C.): <0.1 mg/mL
- Solubility with pharmaceutical co-solvents ([1]; Polyethylene Glycol 400 (PEG 400) and Glycerol): < 100 µg/mL
- Solubility (mg/ml) 25° C. ([1]; Water, pH 6.5, 25° C.): <0.001 mg/mL
- % of Initial (23° C.) ([2]; Water): 21.6%
- % of Initial (40° C.) ([2]; Water): 21.0%
- % of Initial (23° C.) ([2]; pH 2 acetate buffer (0.1M)): 0.2%
- % of Initial (40° C.) ([2]; pH 2 acetate buffer (0.1M)): 0.2%
- % of Initial (23° C.) ([2]; pH 3 acetate buffer (0.1M)): 22.4%
- % of Initial (40° C.) ([2]; pH 3 acetate buffer (0.1M)): 22.2%
- % of Initial (23° C.) ([2]; pH 4 phosphate buffer (0.1M)): 59.5%
- % of Initial (40° C.) ([2]; pH 4 phosphate buffer (0.1M)): 55.7%
- Solubility under physiological conditions relevant to oral absorption [3]: virtually insoluble
